Assay results: patent US8637511B2, “Aminopyrimidines useful as kinase inhibitors” (Vertex Pharmaceuticals Incorporated, priority 2005, dated 2014)
Read-outs that look alike come from different tables or passages of the source.

What was measured:
human Itk kinase = biological target: T1, human Itk kinase (Homo sapiens, UniProt Q08881); experiment: Itk inhibition assay: radioactivity-based assay; type: biochemical; conditions: Ki(app)
T1 sequence (Q08881 1-620): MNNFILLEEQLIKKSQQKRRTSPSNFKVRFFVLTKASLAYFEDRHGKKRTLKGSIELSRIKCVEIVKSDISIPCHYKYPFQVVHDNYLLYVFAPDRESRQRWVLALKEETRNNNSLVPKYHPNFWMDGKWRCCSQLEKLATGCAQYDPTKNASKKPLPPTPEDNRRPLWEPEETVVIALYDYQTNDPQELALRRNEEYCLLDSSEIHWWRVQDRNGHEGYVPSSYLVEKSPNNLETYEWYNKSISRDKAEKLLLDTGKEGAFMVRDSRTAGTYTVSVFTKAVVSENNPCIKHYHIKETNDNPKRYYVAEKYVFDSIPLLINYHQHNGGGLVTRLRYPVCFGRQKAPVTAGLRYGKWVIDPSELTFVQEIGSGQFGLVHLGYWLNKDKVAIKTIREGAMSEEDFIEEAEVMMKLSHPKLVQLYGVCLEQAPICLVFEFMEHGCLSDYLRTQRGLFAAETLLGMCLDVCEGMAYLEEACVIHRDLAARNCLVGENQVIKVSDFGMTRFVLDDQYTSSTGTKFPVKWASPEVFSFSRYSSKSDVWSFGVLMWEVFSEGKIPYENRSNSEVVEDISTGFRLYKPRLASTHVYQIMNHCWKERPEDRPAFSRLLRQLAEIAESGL
Description: The compounds of the present invention were evaluated as inhibitors of human Itk kinase using a radioactivity-based assay. These compounds can also be evaluated using a spectrophotometric or alphascreen assay.
Assays were carried out in a mixture of 20 mM MOPS (pH 7.0), 10 mM MgCl2, 0.1% BSA and 1 mM DTT. Final substrate concentrations in the assay were 7.5 μM [γ-^33P]ATP (400 μCi ^33P ATP/μmol ATP, Amersham Pharmacia Biotech/Sigma Chemicals) and 3 μM peptide (SAM68 protein Δ332-443). Assays were carried out at 25° C. in the presence of 50 nM Itk. An assay stock buffer solution was prepared containing all of the reagents listed above, with the exception of ATP and the test compound of interest. 50 μL of the stock solution was placed in a 96 well plate followed by addition of 2 μL of DMSO stock containing serial dilutions of the test compound (typically starting from a final concentration of 50 μM with 2-fold serial dilutions) in duplicate (final DMSO concentration 2%). The plate was pre-incubated for 10 minutes at 25° C. and the reaction initiated by addition of 50 μL [γ-^33P]ATP (final concentration 7.5 μM).
The reaction was stopped after 10 minutes by the addition of 100 μL 0.2M phosphoric acid+0.01% TWEEN 20. A multiscreen phosphocellulose filter 96-well plate (Millipore, Cat no. MAPHNOB50) was pretreated with 100 μL 0.2M phosphoric acid+0.01% TWEEN 20 prior to the addition of 170 μL of the stopped assay mixture. The plate was washed with 4×200 μL 0.2M phosphoric acid+0.01% TWEEN 20. After drying, 30 μL Optiphase ‘SuperMix’ liquid scintillation cocktail (Perkin Elmer) was added to the well prior to scintillation counting (1450 Microbeta Liquid Scintillation Counter, Wallac).
Ki(app) data were calculated from non-linear regression analysis of the initial rate data using the Prism software package (GraphPad Prism version 3.0cx for Macintosh, GraphPad Software, San Diego Calif., USA).

Colo205 cells = experiment: Analysis of cell proliferation and viability; type: cell-based; conditions: Homo sapiens, read-out: IC50 value
Aurora-1 (Aurora B) = Aurora-1 (Aurora B) (Homo sapiens, UniProt Q96GD4); experiment: Aurora-1 (Aurora B) inhibition assay (radiometric); type: biochemical; conditions: read-out: Aurora B kinase Ki value
Method in brief: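 Ki values come from non-linear regression of background-corrected initial-rate data. The enzyme was preincubated 10 min at 25° C with compound, then reacted 3 h with 800 μM (final) [γ-^33P]-ATP in HEPES pH 7.5/MgCl2/BSA/glycerol buffer. The reaction was stopped with phosphoric acid and substrate-bound ^33P counted on phosphocellulose.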

FLT-3 = biological target: T2, FLT-3 (Homo sapiens, UniProt P36888); experiment: FLT-3 inhibition assay, radiometric filter-binding; type: biochemical
T2 sequence (P36888 27-993): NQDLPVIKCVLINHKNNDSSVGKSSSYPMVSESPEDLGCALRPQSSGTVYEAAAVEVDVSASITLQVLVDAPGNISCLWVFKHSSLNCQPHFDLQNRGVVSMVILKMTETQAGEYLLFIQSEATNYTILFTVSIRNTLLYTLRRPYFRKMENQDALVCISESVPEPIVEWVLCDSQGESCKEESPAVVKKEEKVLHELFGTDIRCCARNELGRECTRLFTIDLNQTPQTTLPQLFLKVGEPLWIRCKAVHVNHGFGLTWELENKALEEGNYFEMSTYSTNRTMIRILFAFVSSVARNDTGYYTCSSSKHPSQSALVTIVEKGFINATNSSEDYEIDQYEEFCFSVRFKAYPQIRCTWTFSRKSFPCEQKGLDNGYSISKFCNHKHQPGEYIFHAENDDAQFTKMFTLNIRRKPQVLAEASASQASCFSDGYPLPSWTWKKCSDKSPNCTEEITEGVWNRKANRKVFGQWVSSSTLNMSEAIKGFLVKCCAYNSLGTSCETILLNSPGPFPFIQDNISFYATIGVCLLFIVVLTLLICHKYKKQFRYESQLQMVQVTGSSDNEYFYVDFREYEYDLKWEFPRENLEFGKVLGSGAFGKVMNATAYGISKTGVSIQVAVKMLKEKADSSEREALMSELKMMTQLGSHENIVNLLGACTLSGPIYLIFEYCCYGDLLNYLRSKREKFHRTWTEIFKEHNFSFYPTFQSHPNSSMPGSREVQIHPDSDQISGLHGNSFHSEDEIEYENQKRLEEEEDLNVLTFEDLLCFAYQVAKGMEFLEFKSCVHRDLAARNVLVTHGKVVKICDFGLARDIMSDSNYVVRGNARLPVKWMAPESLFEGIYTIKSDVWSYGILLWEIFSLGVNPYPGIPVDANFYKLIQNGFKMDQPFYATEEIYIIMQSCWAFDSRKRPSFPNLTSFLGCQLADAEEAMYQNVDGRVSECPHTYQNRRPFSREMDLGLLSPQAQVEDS
Description: This assay monitors the 33P incorporation into a substrate poly(Glu, Tyr) 4:1 (pE4Y). […] Final substrate concentrations in the assay were 90 μM ATP and 0.5 mg/ml pE4Y (both from Sigma Chemicals, St. Louis, Mo.). […] Reactions were carried out at room temperature.
Two assay solutions were prepared. Solution 1 contains 100 mM HEPES (pH 7.5), 10 mM MgCl2, 25 mM NaCl, 1 mg/ml pE4Y and […] (containing 0.3 mCi of [γ-33^P]ATP for each reaction). Solution 2 contains 100 mM HEPES (pH 7.5), 10 mM MgCl2, 25 mM NaCl, 2 mM DTT, 0.02% BSA and 3 nM FLT-3. The assay was run on a 96 well plate by mixing 50 μl each of Solution 1 and […] of the compounds of the present invention. The reaction was initiated with Solution 2. […] All of the reaction volume was then transferred to a filter plate and washed with 5% TCA by a Harvester 9600 from TOMTEC (Hamden, Conn.). The amount of ^33P incorporation into pE4y was analyzed by a Packard Top Count Microplate Scintillation Counter (Meriden, Conn.). The data was fitted using Prism software to get an IC50 or Ki.

JAK3 = biological target: T3, JAK3 (Homo sapiens, UniProt P52333); experiment: biochemical
T3 sequence (P52333 1-1124): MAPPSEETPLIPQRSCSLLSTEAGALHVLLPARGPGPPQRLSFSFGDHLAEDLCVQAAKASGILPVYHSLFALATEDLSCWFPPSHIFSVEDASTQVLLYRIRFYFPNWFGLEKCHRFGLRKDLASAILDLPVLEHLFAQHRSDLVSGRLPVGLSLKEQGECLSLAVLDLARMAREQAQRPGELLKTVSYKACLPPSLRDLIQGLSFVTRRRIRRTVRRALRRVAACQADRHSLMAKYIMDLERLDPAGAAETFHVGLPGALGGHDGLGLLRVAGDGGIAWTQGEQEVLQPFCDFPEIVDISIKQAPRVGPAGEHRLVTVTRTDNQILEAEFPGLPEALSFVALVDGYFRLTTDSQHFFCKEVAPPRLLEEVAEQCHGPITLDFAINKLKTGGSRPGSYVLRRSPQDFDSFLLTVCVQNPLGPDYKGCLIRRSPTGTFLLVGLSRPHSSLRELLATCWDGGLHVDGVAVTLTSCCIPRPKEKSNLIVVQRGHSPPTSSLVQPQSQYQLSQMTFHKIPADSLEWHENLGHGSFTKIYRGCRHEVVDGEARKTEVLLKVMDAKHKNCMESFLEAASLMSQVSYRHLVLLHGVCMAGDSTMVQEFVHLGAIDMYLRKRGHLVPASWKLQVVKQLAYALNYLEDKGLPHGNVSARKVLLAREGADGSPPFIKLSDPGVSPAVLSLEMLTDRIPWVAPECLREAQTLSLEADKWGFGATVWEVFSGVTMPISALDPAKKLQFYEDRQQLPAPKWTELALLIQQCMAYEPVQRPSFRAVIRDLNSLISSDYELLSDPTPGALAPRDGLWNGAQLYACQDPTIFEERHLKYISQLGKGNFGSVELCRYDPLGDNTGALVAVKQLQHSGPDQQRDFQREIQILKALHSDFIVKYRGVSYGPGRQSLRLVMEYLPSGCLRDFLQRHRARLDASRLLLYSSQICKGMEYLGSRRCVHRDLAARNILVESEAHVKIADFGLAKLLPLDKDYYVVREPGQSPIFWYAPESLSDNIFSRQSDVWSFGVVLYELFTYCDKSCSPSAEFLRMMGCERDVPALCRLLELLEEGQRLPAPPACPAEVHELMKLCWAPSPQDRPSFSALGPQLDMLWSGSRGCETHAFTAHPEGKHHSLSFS

Aurora-2 (Aurora A) = biological target: T4, Aurora-2 (Aurora A) (Homo sapiens, UniProt O14965); experiment: Aurora-2 (Aurora A) inhibition assay, coupled enzyme; type: biochemical; conditions: read-out: Aurora A kinase Ki value
T4 sequence (O14965 1-403): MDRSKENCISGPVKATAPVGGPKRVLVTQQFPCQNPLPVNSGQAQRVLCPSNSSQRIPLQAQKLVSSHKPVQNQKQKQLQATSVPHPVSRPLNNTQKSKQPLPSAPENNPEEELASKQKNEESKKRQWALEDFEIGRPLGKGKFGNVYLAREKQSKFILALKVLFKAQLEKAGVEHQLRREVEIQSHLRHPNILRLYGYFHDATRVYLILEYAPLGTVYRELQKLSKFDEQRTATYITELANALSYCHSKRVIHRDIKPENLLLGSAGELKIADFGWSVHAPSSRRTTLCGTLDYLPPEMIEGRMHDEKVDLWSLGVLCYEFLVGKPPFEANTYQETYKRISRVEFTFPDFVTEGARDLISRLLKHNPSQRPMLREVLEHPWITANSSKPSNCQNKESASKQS
Method in brief: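 These rates came from NADH consumption coupled through pyruvate kinase and lactate dehydrogenase (100 mM Hepes pH 7.5, 10 mM MgCl2, 300 μM NADH). Aurora-2 was present at 40 nM, and the reaction ran at 30 °C after a 10 min preincubation.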

[1] = COLO 205, Colo205 cells, incubated for 96 hours
[2] = COLO 205, Colo205 cells, incubated for 72 hours

Sequence of Aurora-1 (Aurora B) (Q96GD4 whole entry): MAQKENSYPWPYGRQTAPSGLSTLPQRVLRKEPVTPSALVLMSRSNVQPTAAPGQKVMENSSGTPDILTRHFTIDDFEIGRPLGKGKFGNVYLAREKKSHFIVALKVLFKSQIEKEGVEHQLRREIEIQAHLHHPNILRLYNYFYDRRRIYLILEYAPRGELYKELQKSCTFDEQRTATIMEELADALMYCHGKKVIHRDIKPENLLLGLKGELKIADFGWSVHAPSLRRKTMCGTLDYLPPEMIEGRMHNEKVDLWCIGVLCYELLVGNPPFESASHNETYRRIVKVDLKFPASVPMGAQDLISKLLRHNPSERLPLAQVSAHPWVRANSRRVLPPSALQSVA

Compound	Ki (human Itk kinase) [nM]	IC50 (Colo205 cells; [1]) [nM]	Ki (Aurora-1 (Aurora B)) [nM]	Ki (FLT-3) [nM]	IC50 (Colo205 cells; [2]) [nM]	other results
Cc1cc(Nc2cc(N3CCC3)nc(Sc3ccc(NC(=O)c4c(F)cccc4F)cc3)n2)n[nH]1 [Compound 7]	≤ 100	≤ 50	–	–	–	–
Cc1cc(Nc2cc(N3CCC3)nc(Sc3ccc(N(C)C(=O)c4c(F)cccc4F)cc3)n2)n[nH]1 [Compound 11]	–	50 to 1000	50 to 2000	150 to 1000	–	Ki (JAK3): 10 to 500 nM
Cc1cccc(C(=O)Nc2ccc(Sc3nc(Nc4cc(C)[nH]n4)cc(N4CCC4)n3)cc2)c1 [Compound 29]	100 to 1000	–	–	–	–	IC50 (Colo205 cells; COLO 205, 96 h): 50 to 1000 nM
Cc1cc(Nc2cc(N3CCC3)nc(Sc3ccc(NC(=O)c4ccccc4C)cc3)n2)n[nH]1 [Compound 31]	100 to 1000	–	–	–	–	IC50 (Colo205 cells; COLO 205, 96 h): 50 to 1000 nM
COc1ccccc1C(=O)Nc1ccc(Sc2nc(Nc3cc(C)[nH]n3)cc(N3CCC3)n2)cc1 [Compound 32]	100 to 1000	–	–	–	–	IC50 (Colo205 cells; COLO 205, 96 h): 50 to 1000 nM
Cc1cc(Nc2cc(CN3CCC3)nc(Sc3ccc(NC(=O)c4ccccc4C(F)(F)F)cc3)n2)[nH]n1 [Compound 132]	–	50 to 1000	10 to 50	150 to 1000	> 200	Ki (JAK3): 500 to 2000 nM
Cc1cc(Nc2cc(N3CCC3)nc(Sc3ccc(NC(=O)c4ccc(CN5CCC5)cc4)cc3)n2)[nH]n1 [Compound 139]	–	50 to 1000	50 to 2000	–	–	Ki (Aurora-2 (Aurora A)): 5 to 200 nM; Ki (FLT-3; read-out: FLT-3 Ki value): 150 to 1000 nM
Cc1cc(Nc2cc(N3CCC3)nc(Sc3ccc(NC(=O)C4(C(F)(F)F)CC4)cc3)n2)[nH]n1 [Compound 142]	–	–	≤ 10	–	30 to 200	Ki (Aurora-2 (Aurora A)): 1 to 5 nM; Ki (FLT-3; read-out: FLT-3 Ki value): 150 to 1000 nM
Cc1cc(Nc2cc(N3CC(F)(C4CC4)C3)nc(Sc3ccc4ccn(CC(F)(F)F)c(=O)c4c3)n2)[nH]n1 [Compound 189]	–	–	50 to 2000	50 to 150	> 200	Ki (JAK3; read-out: JAK3 Ki value): 10 to 500 nM
Cc1cc(Nc2cc(N3CC(F)(C4CC4)C3)nc(Sc3ccc(NC(=O)[C@H]4CCCN4C(C)C)cc3)n2)[nH]n1 [Compound 193]	–	–	50 to 2000	–	> 200	Ki (Aurora-2 (Aurora A)): 1 to 5 nM; Ki (FLT-3; read-out: FLT-3 Ki value): 150 to 1000 nM
Cc1cc(Nc2cc(N3CC(N4CCOCC4)C3)nc(Sc3ccc4nc(C(F)(F)F)n(C)c4c3)n2)[nH]n1 [Compound 195]	–	–	≤ 10	150 to 1000	30 to 200	Ki (JAK3): 10 to 500 nM
